Results as given in PMC7479175, “Selection of Potent Inhibitors of Soluble Epoxide Hydrolase for Usage in Veterinary Medicine” (Frontiers in Veterinary Science, 2020).

Experiments:
Type in all cases: biochemical
Cat sEH [1] = biological target: T1, Cat sEH (Felis catus, UniProt A0ABI7ZL20); assay: Primary screen (end point) of the sEH inhibitor library, PHOME substrate; conditions: read-out: Cat sEH Inhibition (%) P.
Experimental: (§1) Primary screening of the library was performed with an inhibitor concentration of 100 nM using PHOME as substrate ([22]). […] The plates were then mixed and incubated at 30°C for 5 min. Across each plate, 30 μL of the working substrate solution (270 μL of 5 mM PHOME solution in DMSO diluted with 3,680 μL of buffer) were added quickly to yield [S]final: 50 μM. Each plate was further incubated at room temperature (horse sEH: 60 min; cat sEH: 45 min; dog sEH: 30 min).

Dog sEH = biological target: T2, Dog sEH (Canis lupus familiaris, UniProt A0A8I3NJL8); assay: as above; conditions: [I] = 100 nM, primary end-point screening; read-out: Dog sEH Inhibition (%) P.
T2 sequence (A0A8I3NJL8 1-556): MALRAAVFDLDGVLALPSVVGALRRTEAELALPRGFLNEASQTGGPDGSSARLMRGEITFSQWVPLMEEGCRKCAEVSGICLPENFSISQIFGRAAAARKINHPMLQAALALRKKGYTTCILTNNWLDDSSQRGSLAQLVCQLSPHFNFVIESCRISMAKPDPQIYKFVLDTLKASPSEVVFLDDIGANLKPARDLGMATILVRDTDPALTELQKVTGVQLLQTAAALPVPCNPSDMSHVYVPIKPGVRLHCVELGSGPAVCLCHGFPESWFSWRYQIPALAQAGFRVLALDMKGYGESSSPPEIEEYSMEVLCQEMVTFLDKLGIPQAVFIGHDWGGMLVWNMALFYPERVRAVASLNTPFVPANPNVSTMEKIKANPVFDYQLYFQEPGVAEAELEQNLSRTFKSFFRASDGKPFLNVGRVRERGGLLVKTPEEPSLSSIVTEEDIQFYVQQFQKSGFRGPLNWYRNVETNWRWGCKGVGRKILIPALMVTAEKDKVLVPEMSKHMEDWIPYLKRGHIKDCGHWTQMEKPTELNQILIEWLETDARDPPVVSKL
Experimental: as §1

Horse sEH [2] = biological target: T3, Horse sEH (Equus caballus, UniProt F7C407); assay: as above; conditions: [I] = 100 nM, primary end-point screening; read-out: Horse sEH Inhibition (%) P.
T3 sequence (F7C407 entry or part of it): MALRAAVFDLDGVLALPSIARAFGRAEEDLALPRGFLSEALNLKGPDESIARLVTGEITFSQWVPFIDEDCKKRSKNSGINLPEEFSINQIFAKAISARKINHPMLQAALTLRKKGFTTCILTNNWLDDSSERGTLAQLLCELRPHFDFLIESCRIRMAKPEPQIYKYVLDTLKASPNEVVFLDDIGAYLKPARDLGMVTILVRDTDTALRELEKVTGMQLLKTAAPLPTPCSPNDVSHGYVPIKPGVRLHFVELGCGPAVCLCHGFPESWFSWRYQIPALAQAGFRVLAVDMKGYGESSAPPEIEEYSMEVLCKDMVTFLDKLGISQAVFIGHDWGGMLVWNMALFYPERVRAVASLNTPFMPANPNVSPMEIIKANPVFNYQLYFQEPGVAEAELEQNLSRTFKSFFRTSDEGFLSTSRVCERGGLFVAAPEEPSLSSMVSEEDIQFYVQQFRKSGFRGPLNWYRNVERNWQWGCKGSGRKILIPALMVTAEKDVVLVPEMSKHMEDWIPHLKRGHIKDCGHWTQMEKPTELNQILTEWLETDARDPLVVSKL
Experimental: as §1

Cat sEH [3] = biological target: T1, Cat sEH; assay: Secondary screen (kinetic mode), PHOME substrate; conditions: read-out: Cat sEH Inhibition (%) S.
Horse sEH [4] = biological target: T3, Horse sEH; conditions: CMNPC ([S]final = 5 μM) as substrate; average ± standard deviation (n = 3)
Experimental: The sEH activity from the cat, dog and horse liver was further purified to eliminate contaminating esterase activity that could interfere with the screening fluorescent assay ([16]). The cytosolic fraction was loaded on a Q-Sepharose column (100 mL) equilibrated with sodium phosphate buffer (20 mM pH 7.4). After washing of the bound proteins, the sEH activity was eluted with a step gradient of NaCl (0–1 M). The fractions containing the sEH activity were pooled and concentrated using a Centriprep-30. The concentrates were aliquoted and flash frozen, then kept frozen at −80°C until usage. […] Protein concentration was quantified using the Pierce BCA assay (Pierce, Rockford, IL), using Fraction V bovine serum albumin (BSA) as the calibrating standard.
The IC50 values reported herein were determined using either a fluorescent based assay (CMNPC as substrate) for purified enzyme preparations or a radioactive based assay ([^3H]t-DPPO as substrate) for crude enzyme preparations ([20]). The fluorescent assay was used with the purified proteins. […] The substrate (CMNPC) was then added ([S]final = 5 μM). […] The radioactive […] assay was used with the liver crude extracts. […]

[5] = biological target: sEH activity from liver cytosol of Cow (Bos taurus, UniProt Q17QK4); assay: sEH inhibition potency (IC50), radioactive assay with [3H]t-DPPO, liver cytosol; conditions: [3H]t-DPPO ([S]final = 5 μM) as substrate
sEH activity from liver cytosol of Cow, sequence (Q17QK4 entry or part of it): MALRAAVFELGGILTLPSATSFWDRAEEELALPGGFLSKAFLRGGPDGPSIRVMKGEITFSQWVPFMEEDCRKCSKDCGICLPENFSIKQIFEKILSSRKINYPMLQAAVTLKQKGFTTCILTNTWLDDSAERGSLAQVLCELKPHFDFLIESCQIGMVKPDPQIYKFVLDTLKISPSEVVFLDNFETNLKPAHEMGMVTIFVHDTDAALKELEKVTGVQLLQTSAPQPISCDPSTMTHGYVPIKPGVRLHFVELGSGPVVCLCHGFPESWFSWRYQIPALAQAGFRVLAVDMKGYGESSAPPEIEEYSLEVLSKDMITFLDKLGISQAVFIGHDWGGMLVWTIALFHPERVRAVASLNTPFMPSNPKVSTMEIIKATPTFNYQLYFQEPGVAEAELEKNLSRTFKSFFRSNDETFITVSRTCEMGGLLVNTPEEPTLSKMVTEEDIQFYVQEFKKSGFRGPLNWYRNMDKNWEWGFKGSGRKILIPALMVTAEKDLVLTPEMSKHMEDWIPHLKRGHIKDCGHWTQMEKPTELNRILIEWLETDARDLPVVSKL

[6] = biological target: T4, sEH activity from liver cytosol of Mouse (Mus musculus, UniProt P34914); assay: as above; conditions: [3H]t-DPPO ([S]final = 5 μM) as substrate
T4 construct: The radioactive fluorescent assay was used with the liver crude extracts; from tissue; host or cells: mouse liver cytosol (100,000 g supernatant)
T4 sequence (P34914 1-554): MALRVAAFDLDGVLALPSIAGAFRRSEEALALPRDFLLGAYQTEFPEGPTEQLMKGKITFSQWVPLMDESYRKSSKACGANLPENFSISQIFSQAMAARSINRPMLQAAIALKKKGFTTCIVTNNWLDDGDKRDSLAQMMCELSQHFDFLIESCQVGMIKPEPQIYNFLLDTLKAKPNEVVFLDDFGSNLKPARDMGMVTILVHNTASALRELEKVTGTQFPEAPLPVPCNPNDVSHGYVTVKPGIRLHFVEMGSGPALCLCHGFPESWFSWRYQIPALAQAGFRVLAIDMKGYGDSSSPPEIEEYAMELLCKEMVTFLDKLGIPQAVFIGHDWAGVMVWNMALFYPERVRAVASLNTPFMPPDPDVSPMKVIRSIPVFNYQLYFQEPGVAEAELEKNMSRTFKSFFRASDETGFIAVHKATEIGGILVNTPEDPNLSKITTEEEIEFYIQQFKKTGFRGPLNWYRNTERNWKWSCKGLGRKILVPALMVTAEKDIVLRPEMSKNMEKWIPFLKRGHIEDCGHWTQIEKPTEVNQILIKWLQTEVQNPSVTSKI

T1 sequence (A0ABI7ZL20 entry or part of it): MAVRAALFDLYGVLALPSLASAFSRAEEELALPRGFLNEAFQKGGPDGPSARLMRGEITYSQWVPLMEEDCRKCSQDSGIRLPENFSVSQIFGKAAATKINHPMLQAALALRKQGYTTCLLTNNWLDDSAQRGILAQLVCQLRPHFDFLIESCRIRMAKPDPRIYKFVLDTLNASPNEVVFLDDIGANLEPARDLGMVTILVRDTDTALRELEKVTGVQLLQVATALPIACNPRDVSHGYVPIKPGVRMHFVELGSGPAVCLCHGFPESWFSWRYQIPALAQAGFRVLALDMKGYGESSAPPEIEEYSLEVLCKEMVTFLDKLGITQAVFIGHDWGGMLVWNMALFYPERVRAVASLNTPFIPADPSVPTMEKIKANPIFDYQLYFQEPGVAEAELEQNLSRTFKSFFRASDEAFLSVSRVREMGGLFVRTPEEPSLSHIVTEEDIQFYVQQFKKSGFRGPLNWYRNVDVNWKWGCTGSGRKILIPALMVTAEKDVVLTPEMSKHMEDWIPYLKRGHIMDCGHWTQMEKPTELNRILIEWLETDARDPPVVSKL

Row | SMILES | inhibition at 0.1 µM (Cat sEH [1]) | inhibition at 0.1 µM (Dog sEH) | inhibition at 0.1 µM (Horse sEH [2]) | inhibition at 0.1 µM (Cat sEH [3]) | IC50 (Horse sEH [4]) | IC50 [5] | IC50 [6]
1 | O=C(NCCCCOc1ccc(F)cc1)NC12CC3CC(CC(C3)C1)C2 [1,707] | 94% | < 90% | 101% | 99% | 0.5 ± 0.03 nM | 7 nM | 10 nM
2 | N#CNC(=O)CCCCCCCCCCCNC(=O)NC12CC3CC(CC(C3)C1)C2 [1,845] | 101% | 95% | 100% | 104% | 0.4 ± 0.01 nM | 11 nM | 17 nM
